Experimental data from US5028605A, “8-alkylaminoimidazo(1,2-a)pyrazines and derivatives, their preparation and their application in therapy” (l'Universite de Montpellier I, priority 1986, dated 1991).

What was measured:
[1] = tested on: histamine-induced bronchoconstriction, guinea pigs; assay: Antibronchospastic activity: histamine-induced bronchospasm in anesthetized guinea pigs; type: in vivo, guinea pig; conditions: intravenous, 30 seconds before histamine; mean of 5 to 8 determinations
Protocol: Guinea pigs of both sexes weighing between 400 and 600 g are anesthetized with ethyl carbamate ([…] i.p.). After tracheotomy, the animal is placed under artificial respiration at a constant flowrate (Palmer pump 1 m1/100 g×60/min). A take-off at the tracheal cannula enables the volume of air to be gaged at each inhalation by means of a Marey drum. Bronchospasm is induced by intraveneous (jugular) administration of histamine. For each animal, the dose of histamine (8 to 12 μg/kg) inducing an increase in the recording trace equal to double its initial value is determined. The dose adopted should provide three identical responses at intervals of 10 minutes.
The test product is administered intraveneously and then, 30 seconds later, histamine is administered again.

guinea pig trachea = assay: Isolated guinea pig trachea: anti-contractional activity against carbachol; conditions: carbachol 10^-4 M, isolated guinea pig trachea; mean of 5 to 6 determinations
Protocol: Guinea pigs of both sexes weighing on average 400 to 600 g are sacrificed, and the tracheas are removed and placed at 37° C. in an oxygenated environment (95% O2 -5% CO2) in Krebs fluid of the following composition (mM): NaCl (116), MgSO4 (1.2), KCl (3.7), CaCl2 (2.6), KH2 PO4 (2.2), NaHCO3 (24.9), glucose (10). The tracheal segments are then mounted horizontally between two hooks, one of which is fixed to the base of the isolated organ cell and the other is attached to a myograph under a tension of 0.5 g. The organ is left at rest for one hour and is subjected to four washes. The contraction-inducing reagent (carbachol) is added at a concentration (10^-4 M) greater than the concentration giving the maximum effect. After stabilization of the contractional effect, gradually increasing accumulative amounts of the test products are added to the cell. The bronchodilatory effect is measured as the percentage inhibition of the maximal contraction and EC50 represents the concentration inhibiting this concentration by 50%.

duodenum = assay: Antispasmodic activity: barium chloride-induced contraction of isolated rat duodenum (Magnus); conditions: barium chloride 10^-4 M, isolated rat duodenum, 37° C.; mean of 5 to 6 determinations
Protocol: Fragments of duodenum are removed from male rats (200 g), fasted for 24 hours and killed by decapitation, and are mounted, after being washed, in a thermostatted (37° C.) isolated organ cell and maintained in survival in Tyrode's solution according to Magnus's classical technique.
The spasmogenic agent used is barium chloride (10^-4 M).
In the first instance, the spasmogenic agent is added to the nutrient bath and, as soon as the contraction of the organ reaches its maximum, the relaxant agent is added to the medium. Working in relation to a fixed concentration of barium chloride with variable concentrations of relaxant, the ED50 of the latter, capable of reducing the induced contraction by 50%, is determined.
The results expressed in Table IV below show the ratio ED50 Theo/ED50 product, established on the basis of the mean of the results of 5 to 6 determinations per product (ED50theophylline=8×10^-4 M).

mice = assay: Motor activity: spontaneous activity in mice (neurosedative effect); type: in vivo, mouse; conditions: male mice, 50 minutes
Protocol: The measurement of the neurosedative effect is based on the test of activity measurements in mice. […] Five minutes after the administration, the animals are placed in activity-measuring cages, which record their movements digitally by means of the interruption of beams of light. The results are recorded in Table IX and expressed as the percentage variation (increase or decrease ) in activity compared with the controls during a period of 50 minutes following the administration.

SMILES	ED50 Theo/ED50 product (bronchospasm induced in guinea pigs) [1]	further results
CNc1nc(Br)cn2cc(C(N)=O)nc12 [Compound 31, 6-Bromo-8-methylaminoimidazo[1,2-a]pyrazine-2-carboxamide]	1	–
Brc1cn2c(Br)cnc2c(N2CCOCC2)n1 [Compound 16, 3,6-dibromo-8-morpholinoimidazo[1,2-a]pyrazine]	1	–
CCNc1nccn2ccnc12 [Compound 3, 8-ethylaminoimidazo[1,2-a]pyrazine]	–	EC50 Theo/EC50 product (anti-contractional activity, trachea) (guinea pig trachea): 1
CCNc1ncc(Cl)n2ccnc12 [Compound 12, 5-Chloro-8-ethylaminoimidazo[1,2-a]pyrazine]	–	ED50 Theo/ED50 product (antispasmodic activity) (duodenum): 27
CCNc1nc(Br)cn2cc(C(=O)OCC)nc12 [Compound 24, ethyl 6-bromo-8-ethylaminoimidazo[1,2-a]pyrazine-2-carboxylate]	1	–
c1coc(CNc2nccn3ccnc23)c1 [Compound 39, 8-furfurylaminoimidazo[1,2-a]pyrazine]	–	EC50 Theo/EC50 product (anti-contractional activity, trachea) (guinea pig trachea): < 1
CCNc1nc(Br)cn2c(Br)cnc12 [Compound 15, 3,6-dibromo-8-ethylaminoimidazo[1,2-a]pyrazine]	1.6	–
Brc1cn2c(Br)cnc2c(N2CCCCC2)n1 [Compound 38, 3,6-dibromo-8-piperidylimidazo[1,2-a]pyrazine]	1.1	–
Brc1cn2ccnc2c(N2CCOCC2)n1 [Compound 11, 6-bromo-8-morpholinoimidazo[1,2-a]pyrazine]	1	EC50 Theo/EC50 product (anti-contractional activity, trachea) (guinea pig trachea): < 1
CCNc1nccn2c(Br)cnc12 [Compound 7]	–	EC50 Theo/EC50 product (anti-contractional activity, trachea) (guinea pig trachea): 5
Nc1nccn2ccnc12 [Compound 1, 8-aminoimidazo[1,2-a]pyrazine]	–	EC50 Theo/EC50 product (anti-contractional activity, trachea) (guinea pig trachea): 1.5
CCOC(=O)Cc1cn2cc(Br)nc(N)c2n1 [Compound 32, ethyl 8-amino-6-bromoimidazo[1,2-a]pyrazine-2-acetate]	1.6	–
CNc1nc(Br)cn2c(Br)cnc12 [Compound 14, 3,6-dibromo-8-methylaminoimidazo[1,2-a]pyrazine]	1.9	–
CCOC(=O)Cc1cn2cc(Br)nc(NC)c2n1 [Compound 33, Ethyl 6-bromo-8-methylaminoimidazo[1,2-a]pyrazine-2-acetate]	1	–
CCOC(=O)c1cn2cc(Br)nc(NC(C)CC)c2n1 (centres unmarked) [Compound 27, ethyl 6-bromo-8-sec-butylaminoimidazo[1,2-a]pyrazine-2-carboxylate]	< 1	–
CCOC(=O)c1cn2cc(Br)nc(NC)c2n1 [Compound 23, ethyl 6-bromo-8-methylaminoimidazo[1,2-a]pyrazine-2-carboxylate]	1	spontaneous activity - % variation compared with the controls, decrease (.dwnarw.) (mice; 55 μmol/kg intraperitoneally): 43%; spontaneous activity - % variation compared with the controls, decrease (.dwnarw.) (mice; 166 μmol/kg intraperitoneally): 56%
Brc1cn2c(Br)cnc2c(NCc2ccco2)n1 [Compound 37, 3,6-dibromo-8-furfurylaminoimidazo[1,2-a]pyrazine]	1.4	–

SMILES	ED50 Theo/ED50 product (bronchospasm induced in guinea pigs) [1]	further results
CCCCNc1nc(Br)cn2cc(C(=O)OCC)nc12 [Compound 26, ethyl 6-bromo-8-butylaminoimidazo[1,2-a]pyrazine-2-carboxylate]	< 1	–
Nc1nc(Br)cn2c(Br)cnc12 [Compound 13, 8-Amino-3,6-dibromoimidazo[1,2-a]pyrazine]	3.5	–
c1cn2ccnc2c(N2CCOCC2)n1 [Compound 4, 8-Morpholinoimidazo[1,2-a]pyrazine]	–	EC50 Theo/EC50 product (anti-contractional activity, trachea) (guinea pig trachea): < 1
CCOC(=O)c1cn2ccnc(N3CCCCC3)c2n1 [Compound 20, ethyl 8-piperidylimidazo[1,2-a]pyrazine-2-carboxylate]	1	–
CCOC(=O)c1cn2ccnc(N3CCOCC3)c2n1 [Compound 21, ethyl 8-morpholinylimidazo[1,2-a]pyrazine-2-carboxylate]	< 1	–
CCOC(=O)c1cn2cc(Br)nc(N3CCOCC3)c2n1 [Compound 29, ethyl 6-bromo-8-morpholinylimidazo[1,2-a]pyrazine-2-carboxylate]	1	–
CCOC(=O)c1cn2cc(Br)nc(N3CCCCC3)c2n1 [Compound 28, ethyl 6-bromo-8-piperidylimidazo[1,2-a]pyrazine-2-carboxylate]	< 1	–
Brc1cn2ccnc2c(NCc2ccco2)n1 [Compound 36, 6-bromo-8-furfurlaminoimidazo[1,2-a]pyrazine]	< 1	–
CNC(=O)c1nc2c(NC)nc(Cl)c(Cl)n2c1Cl [Compound 34, 3,5,6-Trichloro-8-methylamino-N-methylimidazo[1,2-a]pyrazine-2-carboxamide]	1.2	–
Nc1nccn2c(Br)cnc12 [Compound 5, 8-amino-3-bromoimidazo[1,2-a]pyrazine]	2	EC50 Theo/EC50 product (anti-contractional activity, trachea) (guinea pig trachea): 11
CCCNc1nccn2cc(C(=O)OCC)nc12 [Compound 19, ethyl 8-propylaminoimidazo[1,2-a]pyrazine-2-carboxylate]	< 1	–
CCOC(=O)c1cn2cc(Br)nc(NCCO)c2n1 [Compound 30, ethyl 6-bromo-8-(2-hydroxyethylamino)imidazo[1,2-a]pyrazine-2-carboxylate]	< 1	–
CNc1nccn2ccnc12 [Compound 2, 8-methylaminoimidazo[1,2-a]pyrazine]	–	EC50 Theo/EC50 product (anti-contractional activity, trachea) (guinea pig trachea): < 1
N#Cc1cn2cc(Br)nc(N3CCOCC3)c2n1 [Compound 35, 6-Bromo-8-morpholinoimidazo[1,2-a]pyrazine-2-carbonitrile]	< 1	–
CCCNc1nc(Br)cn2cc(C(=O)OCC)nc12 [Compound 25, ethyl 6-bromo-8-propylaminoimidazo[1,2-a]pyrazine-2-carboxylate]	< 1	–
CCOC(=O)c1cn2ccnc(NC)c2n1 [Compound 18, ethyl 8-methylaminoimidazo[1,2-a]pyrazine-2-carboxylate]	1	–
CCOC(=O)c1cn2cc(Br)nc(N)c2n1 [Compound 22, ethyl 8-amino-6-bromoimidazo[1,2-a]pyrazine-2-carboxylate]	1.5	–
